How the values were obtained:
necrosis = experiment: Necrosis inhibitory activity (cell necrosis / cell viability assay); assay type: cell-based; conditions: Necrosis Inhibitory Activity, given as range; read-out: EC50
Description: Necrosis Inhibitory Activity
Representative IC50 of hRIP1 Kinase Assay Correlated with Our IC50 of Cell Necrosis Assay: […]

ferroptosis = experiment: Ferroptosis inhibitor activity; assay type: cell-based; conditions: 1 uM threshold activity extrapolated
Description: Ferroptosis Inhibitor Activity 1 Um Threshold Activity Extrapolated

[1] = Liver microsome stability, human; assay type: in vitro ADME; conditions: liver microsomes
Description: (§1) Representative Metabolic Stability Data I; +, Extrapolated.

[2] = Liver microsome stability, rat; assay type: in vitro ADME; conditions: liver microsomes
Description: as §1

[3] = Liver microsome stability, mouse; assay type: in vitro ADME; conditions: liver microsomes
Description: as §1

[4] = Liver microsome stability, dog; assay type: in vitro ADME; parameters: key to Dog T1/2 (min): +, Extrapolated; conditions: liver microsome stability; for half-life: dog, liver microsomes, read-out: Dog T1/2
Description: as §1

[5] = Liver microsome stability, mini-pig; assay type: in vitro ADME; parameters: key to mini-pig T1/2 (min): +, Extrapolated; conditions: extrapolated
Description: as §1

[6] = Liver microsome stability, monkey; assay type: in vitro ADME; parameters: key to Monkey T1/2 (min): +, Extrapolated; conditions: liver microsome stability; for half-life: monkey, liver microsomes, read-out: Monkey T1/2
Description: as §1

[7] = Hepatocyte stability, human; assay type: in vitro ADME; parameters: key to Human T1/2 (min): +, Extrapolated; conditions: Hepatocyte stability; for Human T1/2 (min): extrapolated
Description: (§2) Representative Metabolic Stability Data II, +, Extrapolated.

[8] = Hepatocyte stability, rat; assay type: in vitro ADME; parameters: key to Rat T1/2 (min): +, Extrapolated; conditions: Hepatocyte stability; for Rat T1/2 (min): extrapolated
Description: as §2

[9] = Hepatocyte stability, mouse; assay type: in vitro ADME; parameters: key to Mouse T1/2 (min): +, Extrapolated; conditions: Hepatocyte stability; for Mouse T1/2 (min): extrapolated
Description: as §2

[10] = Hepatocyte stability, dog; assay type: in vitro ADME; parameters: key to Dog T1/2 (min): +, Extrapolated; conditions: Hepatocyte stability; for Dog T1/2 (min): extrapolated
Description: as §2

[11] = Hepatocyte stability, monkey; assay type: in vitro ADME; parameters: key to Monkey T1/2 (min): +, Extrapolated; conditions: Hepatocyte stability; for Monkey T1/2 (min): extrapolated
Description: as §2

PK in rat = experiment: PK in rat; parameters: species or system SD rat; conditions: Sprague-Dawley, in vivo, SD rat; for bioavailability / half-life: rat, po
Description: Representative PK Date of Pro-Drug Compounds

[12] = Hepatocyte stability, mini-pig; assay type: in vitro ADME; parameters: key to mini-pig T1/2 (min): +, Extrapolated; conditions: extrapolated
Description: as §2

HT-29 = experiment: EC50 in HT-29; assay type: cell-based; conditions: Homo sapiens
[13] = liver microsome stability, read-out: Human T1/2
[14] = liver microsome stability, read-out: Rat T1/2
[15] = liver microsome stability, read-out: Mouse T1/2
[16] = 60 mg/kg, dose 60 mg/Kg micropower
[17] = comparison table with WO2016/101885 compounds, read-out: Human Liver Microsome T1/2
[18] = comparison table with WO2016/101885 compounds, read-out: Rat Liver Microsome T1/2
[19] = comparison table with WO2016/101885 compounds, read-out: Mouse Liver Microsome T1/2

Compound	EC50 (necrosis) [nM]	EC50 (ferroptosis) [nM]	half-life [1, 13] [min]	half-life [2, 14] [min]	half-life [3, 15] [min]	half-life [4] [min]	mini-pig T1/2 (min) [5]	half-life [6] [min]	Human T1/2 (min) [7]	Rat T1/2 (min) [8]	Mouse T1/2 (min) [9]	Dog T1/2 (min) [10]	mini-pig T1/2 (min) [12]	Monkey T1/2 (min) [11]	AUC (PK in rat; PO 10 mg/kg) [ng·h/mL]	bioavailability (PK in rat; 10 mg/kg, PO 10 mg/kg) [%]	half-life (PK in rat; 10 mg/kg, PO 10 mg/kg) [min]	EC50 (HT-29) [nM]	half-life [1, 17] [min]	half-life [2, 18] [min]	other results
[2H]CC([2H])C(C)(C)C(=O)N(O)Cc1cc(F)cc(F)c1 (stereo not drawn) [Compound 26, N-(3,5-difluorobenzyl)-N-hydroxy-2,2-dimethylbutanamide-3,4-d2]	1 to 1000	1000 to 10000	136	23.3	21.1	2.31	+	4.97	–	–	–	–	–	–	–	–	–	–	–	–	half-life ([7]; human, hepatocytes, read-out: Human T1/2): 110 min; half-life ([8]; rat, hepatocytes, read-out: Rat T1/2): 33.4 min; half-life ([9]; mouse, hepatocytes, read-out: Mouse T1/2): 21 min; half-life ([10]; dog, hepatocytes, read-out: Dog T1/2): 8.43 min; half-life ([11]; monkey, hepatocytes, read-out: Monkey T1/2): 19.3 min; AUC (PK in rat; PO, dose 60 mg/Kg micropower): 8340 ng·h/mL; bioavailability (PK in rat; [16]): 74.1%; half-life (PK in rat; [16]): 171 min
[2H]C([2H])C([2H])([2H])C(C)(C)C(=O)N(O)Cc1ccccc1 [Compound 28, N-benzyl-N-hydroxy-2,2-dimethylbutanamide-3,3,4,4-d4]	1 to 1000	1000 to 10000	195	28.6	33.6	3.5	+	3.3	+	+	+	+	+	+	318	14.8	37	–	–	–	–
CCC(C)(C)C(=O)N(O)Cc1ccc(Cl)cc1 [Compound 15, N-(4-chlorobenzyl)-N-hydroxy-2,2-dimethylbutanamide]	1 to 1000	1000 to 10000	96.8	41.1	16.6	–	+	–	+	+	+	+	+	+	923	20.3	293	–	–	–	Dog T1/2 (min) ([4]; extrapolated): +; Monkey T1/2 (min) ([6]; extrapolated): +
CCC(C)(C)C(=O)N(O)Cc1cc(F)cc(F)c1F [SIR1-176]	–	–	–	–	–	–	–	–	–	–	–	–	–	–	–	–	–	65	67	22	half-life [3, 19]: 9 min
[2H]CC([2H])C(C)(C)C(=O)N(O)Cc1ccccc1 (stereo not drawn) [Compound 27, N-benzyl-N-hydroxy-2,2-dimethylbutanamide-3,4-d2]	1 to 1000	1000 to 10000	178	19.8	26.5	1.5	+	0.6	+	+	+	+	+	+	78.6	5.29	55.2	–	–	–	–
CCC(C)(C)C(=O)N(O)Cc1ccc(F)c(F)c1 [SIR1-180]	–	–	–	–	–	–	–	–	–	–	–	–	–	–	–	–	–	55	107	29	half-life [3, 19]: 11 min
